# Key:
# [1] = Accelerated flow-device release test of extruded/spun fibers; type: physicochemical; conditions: trifluralin/nanoclay/polypropylene fiber material, water with 0.01% Tween 20, ca. 23° C.
# Description: For extrusion and spinning of fibers, the trifluralin-loaded nanoclay is prepared from batches containing 3500 grams of trifluralin and 5476 grams of the nanoclay by the method described in Example 1. The particle size requirement is that the sample pass through a #60 U.S. Sieve (<250 microns). The loading of the trifuralin/nanoclay/polypropylene fiber material in a polyester matrix that is adjusted to provide between 4 and 8% TFN (w/w) for the first fiber run, and 3% TFN (w/w) for the second test run. Pelletized PP material is used for the extrusion and spinning of fibers.
# These samples are placed in a flow device that exposed the sample to water that contains 0.01% Tween 20. It is operated at room temperature (ca. 23° C.). These conditions are used as an accelerated test in which 24 hours represents 2 or 3 years of exposure in the environment. This correlation is based on the slope of Arrenhius plots over a temperature range of 10° C. to 50° C. similar systems. During the first few hours, the release rate is high, usually over 100 μg/cm^2/day. The test is continued until the release rate reaches the steady state.
# [2] = Accelerated flow-device release test of injection molded sheets; type: physicochemical
# Description: Injection molded samples (Table 3) were prepared using a Model 45 MINI-JECTOR (Mini-Jector Machinery Corp., Newbury, Ohio). The mold to be used produces test sheets that were 7.5×5 cm and 1 mm thick. The polyethylene used was powdered Quantum Microthene (XU594, 35 mesh). The polymer was mixed with the aplatelet clay or aplatelet nanoclay to provide a final ratio of 2 parts trifluralin to 20 parts polymer (24 gm load for each injection). For the PE, the injector is set up to melt the mixture at 127° C., with the injection nozzle heated to 138° C. Polypropylene is melted and injected at 163° C.
# These sheets were washed in 90% MeOH to remove surface TFN contamination and placed into a flow device that exposes the sample to water that contains 0.01% Tween 20 and 0.5% MeOH. The system is operated at room temperature (ca. 23° C.). These conditions are used as an accelerated test in which 24 hours represents 2-3 years of exposure in the environment. During the first few hours, the release rate is high, usually over 100 μg/cm^2/day.
smiles,measurement,setting,value
"CCCN(CCC)c1c([N+](=O)[O-])cc(C(F)(F)F)cc1[N+](=O)[O-] [trifluralin, Trifluralin]",release rate during the first few hours,[1],over 100 μg/cm^2/day
same,release rate during the first few hours,"[2]; injection molded polymer sheets with trifluralin-loaded aplatelet clay or nanoclay, water with 0.01% Tween 20 and 0.5% MeOH, ca. 23° C., first few hours",over 100 μg/cm^2/day
same,rate of trifluralin release from polypropylene relative to standard polyethylene,[2]; polypropylene matrix versus standard polyethylene,≥ 2%
